This test addresses T1, human recombinant P2X7 receptor (Homo sapiens, UniProt Q99572).
T1 construct: expressed in transfected cells
T1 sequence (Q99572 1-595): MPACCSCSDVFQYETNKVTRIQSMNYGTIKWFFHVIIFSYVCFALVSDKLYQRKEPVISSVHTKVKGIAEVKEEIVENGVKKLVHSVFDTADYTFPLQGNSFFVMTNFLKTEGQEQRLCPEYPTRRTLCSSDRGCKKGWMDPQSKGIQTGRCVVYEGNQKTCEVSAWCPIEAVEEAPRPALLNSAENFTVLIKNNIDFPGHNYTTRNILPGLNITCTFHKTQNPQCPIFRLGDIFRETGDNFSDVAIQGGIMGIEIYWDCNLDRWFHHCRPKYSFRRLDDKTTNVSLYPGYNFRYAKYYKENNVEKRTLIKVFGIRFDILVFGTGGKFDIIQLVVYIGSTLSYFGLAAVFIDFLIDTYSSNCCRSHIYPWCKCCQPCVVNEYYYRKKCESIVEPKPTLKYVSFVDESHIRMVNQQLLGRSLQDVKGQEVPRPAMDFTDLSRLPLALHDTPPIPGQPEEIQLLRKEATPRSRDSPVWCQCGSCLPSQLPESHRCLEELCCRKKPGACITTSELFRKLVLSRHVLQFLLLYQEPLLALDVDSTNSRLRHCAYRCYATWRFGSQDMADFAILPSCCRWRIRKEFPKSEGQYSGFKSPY
Briefly: YO-PRO assay (YO-PRO-1 uptake) in HEK cells stably expressing P2X7. The test is classed as cell-based. The note with it: HEK-293 cells expressing human recombinant P2X7 receptor; ATP 250 μM, 90 minutes; YO-PRO-1 fluorescence (FLIPR tetra); read-out: IC50 (antagonistic activity with respect to the P2X7 receptor). As for the experimental part: Cell line generation was performed in general according to established molecular cloning protocols. Specifically, RNA was extracted from human whole blood using the Qiagen RNeasy kit (Qiagen, CH) according to the manufacturer's instructions. Subsequently cDNA was made (Superscript II, Invitrogen AG, CH) and the human P2X7 gene (genbank ref. BC011913) was amplified with the following primers: [NT] and [NT] The amplified sequence was subsequently ligated into a pcDNA3.1 (+) NotI, NheI digested plasmid. […] Following a 24 h exposure to DNA, cells were trypsinized and re-seeded at low density in the presence of 250 μg Geneticin. Geneticin resistant cells were then selected during two consecutive rounds of cloning by serial limiting dilution with visual inspection. Individual clones were screened for P2X7 expression by applying ATP and recording the resultant uptake of YO-[…]. Specific cell clones were chosen based on RNA and protein expression. HEK cells stably expressing P2X7 were used to screen drugs using the YO-[…] assay. Cells were grown to confluency in adherent culture at 37° C. in a humidified 5% CO2 incubator (split 1/5 every 3-4 days with DMEM, 10% FCS, 1% Penicillin/Streptomycin, 250 μg/ml Geneticin). Adherent cells were detached by incubation with Trypsine (1 ml per 165 cm^2 dish) for 2 minutes, then washed off with 10 ml PBS (without Mg^2+ and Ca^2+), and resuspended in DMEM, 10% FCS, 1% Penicillin/Streptomycin, no Geneticin. 10'000 cells per well (48 hours before the assay) or 25'000 cells per well (Vi-cell XR (Beckman Coulter) (24 hours before the assay) in 50 μl full medium were seeded on 384-well black-wall, clear bottom plates, that were coated before with 10 μl per well Poly-L-Lysine, incubated for 30-60 minutes at 37° C. and washed once with PBS. Medium was removed from cells and 50 μl of assay buffer containing 0.5 μM YO-[…] was added into the wells. Solutions of antagonist compounds were prepared by serial dilutions of a 10 mM DMSO solution of the antagonist into PBS using a BioMek (Beckman Coulter). Each concentration was performed in duplicate. […] During this time period, four time points were taken. Each time point comprised the average of several measurements made within a few seconds. […] The FLIPR tetra was equipped with Molecular Devices Screen Works system control software to define and run experimental protocols. […] For IC50 measurements the maximum intensity is plotted against the concentration of compound to determine IC50 values.
Turning to `CCN(c1ccc(Cl)c(C(=O)NCC2(O)CCCCC2)c1)c1cc[nH]c(=O)n1` [Example 21, 2-Chloro-5-[ethyl-(2-oxo-1,2-dihydro-pyrimidin-4-yl)-amino]-N-(1-hydroxy-cyclohexylmethyl)-benzamide], the half-maximal inhibitory concentration (IC50) (as a rule, the concentration that gives 50% inhibition) stood at 0.017 µM.
Turning to `CCCN(c1ccc(Cl)c(C(=O)NCC2(O)CCCCC2)c1)c1ccnc(Cl)n1` [Example 22, 2-Chloro-5-[(2-chloro-pyrimidin-4-yl)-propyl-amino]-N-(1-hydroxy-cyclohexylmethyl)-benzamide], the half-inhibitory concentration (IC50) worked out at 0.267 µM.
Turning to `CCCN(c1ccc(Cl)c(C(=O)NCC2(O)CCCCC2)c1)c1cc[nH]c(=O)n1` [Example 23, 2-Chloro-N-(1-hydroxy-cyclohexylmethyl)-5-[(2-oxo-1,2-dihydro-pyrimidin-4-yl)-propyl-amino]-benzamide], the IC50 was found to be 0.018 µM.
To `CC(C)N(c1ccc(Cl)c(C(=O)NCC2(O)CCCCC2)c1)c1ccnc(Cl)n1` [Example 24, 2-Chloro-5-[(2-chloro-pyrimidin-4-yl)-isopropyl-amino]-N-(1-hydroxy-cyclohexylmethyl)-benzamide] belongs 0.236 µM; to `CC(C)N(c1ccc(Cl)c(C(=O)NCC2(O)CCCCC2)c1)c1cc[nH]c(=O)n1` [Example 25, 2-Chloro-N-(1-hydroxy-cyclohexylmethyl)-5-[isopropyl-(2-oxo-1,2-dihydro-pyrimidin-4-yl)-amino]-benzamide], 0.109 µM; to `CC(C)CN(c1ccc(Cl)c(C(=O)NCC2(O)CCCCC2)c1)c1ccnc(Cl)n1` [Example 26, 2-Chloro-5-[(2-chloro-pyrimidin-4-yl)-isobutyl-amino]-N-(1-hydroxy-cyclohexylmethyl)-benzamide], 0.317 µM.
With `CC(C)CN(c1ccc(Cl)c(C(=O)NCC2(O)CCCCC2)c1)c1cc[nH]c(=O)n1` [Example 27, 2-Chloro-N-(1-hydroxy-cyclohexylmethyl)-5-[isobutyl-(2-oxo-1,2-dihydro-pyrimidin-4-yl)-amino]-benzamide], the IC50 came out at 0.03 µM.
`COc1nccc(N(CC(C)C)c2ccc(Cl)c(C(=O)NCC3(O)CCCCC3)c2)n1` [Example 28, 2-Chloro-N-(1-hydroxy-cyclohexylmethyl)-5-[isobutyl-(2-methoxy-pyrimidin-4-yl)-amino]-benzamide]: the IC50 was found to be 0.353 µM.
To `O=C(NCC1(O)CCCCC1)c1cc(N(Cc2ccccc2)c2ccnc(Cl)n2)ccc1Cl` [Example 29, 5-[Benzyl-(2-chloro-pyrimidin-4-yl)-amino]-2-chloro-N-(1-hydroxy-cyclohexylmethyl)-benzamide] belongs 0.456 µM; to `O=C(NCC1(O)CCCCC1)c1cc(N(Cc2ccccc2)c2cc[nH]c(=O)n2)ccc1Cl` [Example 30, 5-[Benzyl-(2-oxo-1,2-dihydro-pyrimidin-4-yl)-amino]-2-chloro-N-(1-hydroxy-cyclohexylmethyl)-benzamide], 0.181 µM; to `COc1nccc(N(Cc2ccccc2)c2ccc(Cl)c(C(=O)NCC3(O)CCCCC3)c2)n1` [Example 31, 5-[Benzyl-(2-methoxy-pyrimidin-4-yl)-amino]-2-chloro-N-(1-hydroxy-cyclohexylmethyl)-benzamide], 0.566 µM.
`COCCN(c1ccc(Cl)c(C(=O)NCC2(O)CCCCC2)c1)c1ccnc(Cl)n1` [Example 32, 2-Chloro-5-[(2-chloro-pyrimidin-4-yl)-(2-methoxy-ethyl)-amino]-N-(1-hydroxy-cyclohexylmethyl)-benzamide]: the IC50 was 0.531 µM.
Turning to `COCCN(c1ccc(Cl)c(C(=O)NCC2(O)CCCCC2)c1)c1cc[nH]c(=O)n1` [Example 33, 2-Chloro-N-(1-hydroxy-cyclohexylmethyl)-5-[(2-methoxy-ethyl)-(2-oxo-1,2-dihydro-pyrimidin-4-yl)-amino]-benzamide], the IC50 worked out at 0.183 µM.
For the molecule `COCCN(c1ccc(Cl)c(C(=O)NCC2(O)CCCCC2)c1)c1ccnc(OC)n1` [Example 34, 2-Chloro-N-(1-hydroxy-cyclohexylmethyl)-5-[(2-methoxy-ethyl)-(2-methoxy-pyrimidin-4-yl)-amino]-benzamide], the IC50 is 0.86 µM.
To `O=C(NCC1(O)CCCCC1)c1cc(N(CC2CCCC2)c2ccnc(Cl)n2)ccc1Cl` [Example 35, 2-Chloro-5-[(2-chloro-pyrimidin-4-yl)-cyclopentylmethyl-amino]-N-(1-hydroxy-cyclohexylmethyl)-benzamide] belongs 0.367 µM.
Take `O=C(NCC1(O)CCCCC1)c1cc(N(CC2CCCC2)c2cc[nH]c(=O)n2)ccc1Cl` [Example 36, 2-Chloro-5-[cyclopentylmethyl-(2-oxo-1,2-dihydro-pyrimidin-4-yl)-amino]-N-(1-hydroxy-cyclohexylmethyl)-benzamide]: the half-inhibitory concentration (IC50) was 0.185 µM.
For `O=C(NCC1(O)CCCCC1)c1cc(N(CCOc2ccccc2)c2ccnc(Cl)n2)ccc1Cl` [Example 38, 2-Chloro-5-[(2-chloro-pyrimidin-4-yl)-(2-phenoxy-ethyl)-amino]-N-(1-hydroxy-cyclohexylmethyl)-benzamide], the IC50 worked out at 0.764 µM.
As to `O=C(NCC1(O)CCCCC1)c1cc(N(CCOc2ccccc2)c2cc[nH]c(=O)n2)ccc1Cl` [Example 39, 2-Chloro-N-(1-hydroxy-cyclohexylmethyl)-5-[(2-oxo-1,2-dihydro-pyrimidin-4-yl)-(2-phenoxy-ethyl)-amino]-benzamide], the half-inhibitory concentration (IC50) turned out to be 0.378 µM.
With `COc1nccc(N(CCOc2ccccc2)c2ccc(Cl)c(C(=O)NCC3(O)CCCCC3)c2)n1` [Example 40, 2-Chloro-N-(1-hydroxy-cyclohexylmethyl)-5-[(2-methoxy-pyrimidin-4-yl)-(2-phenoxy-ethyl)-amino]-benzamide], the IC50 was determined as 0.588 µM.
Regarding `C[C@@H](NC(=O)c1cc(N(C)c2ccnc(Cl)n2)ccc1Cl)C1CCCCC1` [Example 41, 2-Chloro-5-[(2-chloro-pyrimidin-4-yl)-methyl-amino]-N—((R)-1-cyclohexyl-ethyl)-benzamide], the IC50 amounted to 0.384 µM.
`C[C@@H](NC(=O)c1cc(N(C)c2cc[nH]c(=O)n2)ccc1Cl)C1CCCCC1` [Example 42, 2-Chloro-N—((R)-1-cyclohexyl-ethyl)-5-[methyl-(2-oxo-1,2-dihydro-pyrimidin-4-yl)-amino]-benzamide]: the IC50 was 0.038 µM.
For `CN(c1ccc(Cl)c(C(=O)N[C@H](CO)C2CCCCC2)c1)c1ccnc(Cl)n1` [Example 43, 2-Chloro-5-[(2-chloro-pyrimidin-4-yl)-methyl-amino]-N—((S)-1-cyclohexyl-2-hydroxy-ethyl)-benzamide], the IC50 amounted to 0.136 µM.
As for `CN(c1ccc(Cl)c(C(=O)N[C@H](CO)C2CCCCC2)c1)c1cc[nH]c(=O)n1` [Example 44, 2-Chloro-N—((S)-1-cyclohexyl-2-hydroxy-ethyl)-5-[methyl-(2-oxo-1,2-dihydro-pyrimidin-4-yl)-amino]-benzamide], the IC50 was 0.033 µM.
To `CN(c1ccc(Cl)c(C(=O)NCC2(O)CCCCCC2)c1)c1ccnc(Cl)n1` [Example 45, 2-Chloro-5-[(2-chloro-pyrimidin-4-yl)-methyl-amino]-N-(1-hydroxy-cycloheptylmethyl)-benzamide] belongs 0.089 µM.
Regarding `CN(c1ccc(Cl)c(C(=O)NCC2(O)CCCCCC2)c1)c1cc[nH]c(=O)n1` [Example 46, 2-Chloro-N-(1-hydroxy-cycloheptylmethyl)-5-[methyl-(2-oxo-1,2-dihydro-pyrimidin-4-yl)-amino]-benzamide], the IC50 is 0.021 µM.
To `CN(c1ccc(Cl)c(C(=O)NCC2(O)CCCCCCC2)c1)c1ccnc(Cl)n1` [Example 47, 2-Chloro-5-[(2-chloro-pyrimidin-4-yl)-methyl-amino]-N-(1-hydroxy-cyclooctylmethyl)-benzamide] belongs 0.116 µM.

Source of the values: patent publication US20140073651A1, “BENZAMIDE DERIVATIVES AS P2X7 RECEPTOR ANTAGONISTS” (Actelion Pharmaceuticals Ltd., priority 2011, published 2014).
